Measurements taken from paper PMC9851200, “Multiparameter phenotypic screening for endogenous TFEB and TFE3 translocation identifies novel chemical series modulating lysosome function” (Autophagy, 2022).

Experiments:
Assay type in all cases: binding
[1] = molecular target: kinases (KINOMEscan panel) (Homo sapiens, UniProt P00533, DEL752-759); conditions: EGFR(S752-I759del); NEW KINOMEscan
[2] = molecular target: kinases (KINOMEscan panel) (Homo sapiens, UniProt P15056); conditions: BRAF; NEW KINOMEscan
[3] = molecular target: kinases (KINOMEscan panel) (Homo sapiens, UniProt P21802); conditions: kinase FGFR2; NEW KINOMEscan
[4] = molecular target: T1, kinases (KINOMEscan panel) (Homo sapiens, UniProt P29320); conditions: kinase EPHA3; NEW KINOMEscan
T1 sequence (P29320 21-983): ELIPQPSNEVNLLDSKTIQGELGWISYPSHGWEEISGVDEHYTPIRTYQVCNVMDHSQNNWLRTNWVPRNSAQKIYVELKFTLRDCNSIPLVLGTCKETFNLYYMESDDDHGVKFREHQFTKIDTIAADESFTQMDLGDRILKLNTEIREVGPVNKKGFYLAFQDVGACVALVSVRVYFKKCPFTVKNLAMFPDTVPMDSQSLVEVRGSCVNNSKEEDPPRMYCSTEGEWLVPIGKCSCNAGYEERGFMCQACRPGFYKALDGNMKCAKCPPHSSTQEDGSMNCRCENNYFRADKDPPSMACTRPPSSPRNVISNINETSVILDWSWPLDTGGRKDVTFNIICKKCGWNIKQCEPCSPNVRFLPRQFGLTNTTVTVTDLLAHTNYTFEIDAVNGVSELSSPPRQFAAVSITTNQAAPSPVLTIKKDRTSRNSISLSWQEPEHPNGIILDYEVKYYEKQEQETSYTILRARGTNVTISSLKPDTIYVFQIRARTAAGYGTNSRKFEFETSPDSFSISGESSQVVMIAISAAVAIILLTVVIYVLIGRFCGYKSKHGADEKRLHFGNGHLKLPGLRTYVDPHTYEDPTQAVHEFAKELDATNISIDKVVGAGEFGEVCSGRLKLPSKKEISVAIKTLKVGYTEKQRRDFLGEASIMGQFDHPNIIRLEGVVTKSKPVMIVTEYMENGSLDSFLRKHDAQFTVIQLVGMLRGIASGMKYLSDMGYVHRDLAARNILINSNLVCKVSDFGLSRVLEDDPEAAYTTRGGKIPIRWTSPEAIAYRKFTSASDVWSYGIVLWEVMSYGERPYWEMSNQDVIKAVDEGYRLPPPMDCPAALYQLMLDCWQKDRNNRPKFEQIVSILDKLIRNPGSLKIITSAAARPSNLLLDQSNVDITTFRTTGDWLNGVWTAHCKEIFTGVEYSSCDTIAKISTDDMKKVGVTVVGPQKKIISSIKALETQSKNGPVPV

[5] = molecular target: kinases (KINOMEscan panel) (Homo sapiens, UniProt P30291); conditions: WEE1; NEW KINOMEscan
[6] = molecular target: kinases (KINOMEscan panel) (Homo sapiens, UniProt P54756); conditions: kinase EPHA5; NEW KINOMEscan
[7] = molecular target: kinases (KINOMEscan panel) (Homo sapiens, UniProt P78362); conditions: SRPK2; NEW KINOMEscan
[8] = molecular target: T2, kinases (KINOMEscan panel) (Homo sapiens, UniProt Q96BR1); conditions: kinase SGK3; NEW KINOMEscan
T2 sequence (Q96BR1 1-496): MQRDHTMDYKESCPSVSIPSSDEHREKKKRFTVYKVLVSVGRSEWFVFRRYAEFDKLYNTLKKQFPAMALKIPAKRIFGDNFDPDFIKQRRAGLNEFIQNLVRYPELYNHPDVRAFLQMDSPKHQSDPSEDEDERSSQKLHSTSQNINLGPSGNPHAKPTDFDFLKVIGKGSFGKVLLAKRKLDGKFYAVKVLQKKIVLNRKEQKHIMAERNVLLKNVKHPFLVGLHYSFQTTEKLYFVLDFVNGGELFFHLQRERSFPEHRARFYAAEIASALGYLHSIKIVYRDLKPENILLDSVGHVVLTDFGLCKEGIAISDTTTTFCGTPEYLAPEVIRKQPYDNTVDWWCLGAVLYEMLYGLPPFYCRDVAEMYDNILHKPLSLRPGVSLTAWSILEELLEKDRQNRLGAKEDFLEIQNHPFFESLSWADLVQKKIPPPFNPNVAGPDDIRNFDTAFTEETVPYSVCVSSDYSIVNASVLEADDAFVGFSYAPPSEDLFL

[9] = molecular target: kinases (KINOMEscan panel) (Homo sapiens, UniProt Q96J92); conditions: WNK4; NEW KINOMEscan
[10] = molecular target: kinases (KINOMEscan panel) (Homo sapiens, UniProt Q9HAZ1); conditions: kinase CLK4; NEW KINOMEscan
[11] = molecular target: T3, kinases (KINOMEscan panel) (Homo sapiens, UniProt Q9UKI8); conditions: kinase TLK1; NEW KINOMEscan
T3 sequence (Q9UKI8 1-766): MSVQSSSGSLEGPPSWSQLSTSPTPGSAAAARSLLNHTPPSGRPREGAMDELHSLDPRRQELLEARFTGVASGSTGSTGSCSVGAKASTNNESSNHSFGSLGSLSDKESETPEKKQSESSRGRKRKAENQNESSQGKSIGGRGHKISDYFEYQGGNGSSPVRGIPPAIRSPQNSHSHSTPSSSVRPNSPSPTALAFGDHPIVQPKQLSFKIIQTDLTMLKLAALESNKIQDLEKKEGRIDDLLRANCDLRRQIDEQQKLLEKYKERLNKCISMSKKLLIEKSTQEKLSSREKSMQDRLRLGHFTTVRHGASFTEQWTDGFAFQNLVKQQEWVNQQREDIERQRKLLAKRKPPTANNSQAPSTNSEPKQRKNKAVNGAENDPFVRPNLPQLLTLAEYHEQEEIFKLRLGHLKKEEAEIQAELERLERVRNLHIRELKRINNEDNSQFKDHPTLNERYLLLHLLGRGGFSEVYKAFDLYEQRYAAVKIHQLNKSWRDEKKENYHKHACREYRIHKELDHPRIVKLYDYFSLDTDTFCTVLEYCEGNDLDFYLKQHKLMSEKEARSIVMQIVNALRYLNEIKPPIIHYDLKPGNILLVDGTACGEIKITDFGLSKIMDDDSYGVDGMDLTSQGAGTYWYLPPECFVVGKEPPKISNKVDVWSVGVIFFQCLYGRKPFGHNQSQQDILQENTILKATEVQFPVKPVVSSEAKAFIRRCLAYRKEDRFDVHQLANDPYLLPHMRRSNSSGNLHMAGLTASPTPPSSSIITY

Sequence of kinases (KINOMEscan panel) (Homo sapiens, UniProt Q9HAZ1) (Q9HAZ1 whole entry): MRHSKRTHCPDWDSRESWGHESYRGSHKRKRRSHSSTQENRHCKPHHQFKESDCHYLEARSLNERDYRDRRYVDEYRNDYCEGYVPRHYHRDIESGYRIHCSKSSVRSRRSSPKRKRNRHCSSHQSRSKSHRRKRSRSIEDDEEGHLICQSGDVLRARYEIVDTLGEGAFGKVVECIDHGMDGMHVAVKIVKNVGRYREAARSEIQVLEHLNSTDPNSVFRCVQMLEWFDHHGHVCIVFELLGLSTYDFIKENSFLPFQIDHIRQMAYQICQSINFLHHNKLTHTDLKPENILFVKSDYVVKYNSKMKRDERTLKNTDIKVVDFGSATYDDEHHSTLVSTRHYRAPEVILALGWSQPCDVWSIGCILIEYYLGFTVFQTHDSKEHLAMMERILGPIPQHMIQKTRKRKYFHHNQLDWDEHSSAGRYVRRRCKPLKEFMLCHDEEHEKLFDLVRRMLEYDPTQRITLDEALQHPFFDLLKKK
Sequence of kinases (KINOMEscan panel) (Homo sapiens, UniProt P78362) (P78362 whole entry): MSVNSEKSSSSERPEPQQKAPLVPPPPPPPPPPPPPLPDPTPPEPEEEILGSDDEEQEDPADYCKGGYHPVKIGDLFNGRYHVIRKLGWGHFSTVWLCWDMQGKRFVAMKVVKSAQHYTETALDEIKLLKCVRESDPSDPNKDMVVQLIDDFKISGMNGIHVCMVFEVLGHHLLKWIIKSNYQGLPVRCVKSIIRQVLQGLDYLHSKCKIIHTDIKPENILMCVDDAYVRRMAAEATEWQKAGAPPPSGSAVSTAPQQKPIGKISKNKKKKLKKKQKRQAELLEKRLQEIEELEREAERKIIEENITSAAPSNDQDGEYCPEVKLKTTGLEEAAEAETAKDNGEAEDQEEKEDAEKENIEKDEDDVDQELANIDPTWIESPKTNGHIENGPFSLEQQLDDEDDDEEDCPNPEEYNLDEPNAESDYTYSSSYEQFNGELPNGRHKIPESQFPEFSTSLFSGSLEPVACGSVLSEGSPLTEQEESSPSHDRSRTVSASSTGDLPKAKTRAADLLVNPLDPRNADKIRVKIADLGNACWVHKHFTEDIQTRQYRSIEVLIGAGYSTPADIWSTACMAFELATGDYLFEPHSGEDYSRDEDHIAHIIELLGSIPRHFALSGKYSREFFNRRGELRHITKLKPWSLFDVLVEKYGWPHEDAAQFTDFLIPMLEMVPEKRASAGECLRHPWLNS
Sequence of kinases (KINOMEscan panel) (Homo sapiens, UniProt P54756) (P54756 25-1037): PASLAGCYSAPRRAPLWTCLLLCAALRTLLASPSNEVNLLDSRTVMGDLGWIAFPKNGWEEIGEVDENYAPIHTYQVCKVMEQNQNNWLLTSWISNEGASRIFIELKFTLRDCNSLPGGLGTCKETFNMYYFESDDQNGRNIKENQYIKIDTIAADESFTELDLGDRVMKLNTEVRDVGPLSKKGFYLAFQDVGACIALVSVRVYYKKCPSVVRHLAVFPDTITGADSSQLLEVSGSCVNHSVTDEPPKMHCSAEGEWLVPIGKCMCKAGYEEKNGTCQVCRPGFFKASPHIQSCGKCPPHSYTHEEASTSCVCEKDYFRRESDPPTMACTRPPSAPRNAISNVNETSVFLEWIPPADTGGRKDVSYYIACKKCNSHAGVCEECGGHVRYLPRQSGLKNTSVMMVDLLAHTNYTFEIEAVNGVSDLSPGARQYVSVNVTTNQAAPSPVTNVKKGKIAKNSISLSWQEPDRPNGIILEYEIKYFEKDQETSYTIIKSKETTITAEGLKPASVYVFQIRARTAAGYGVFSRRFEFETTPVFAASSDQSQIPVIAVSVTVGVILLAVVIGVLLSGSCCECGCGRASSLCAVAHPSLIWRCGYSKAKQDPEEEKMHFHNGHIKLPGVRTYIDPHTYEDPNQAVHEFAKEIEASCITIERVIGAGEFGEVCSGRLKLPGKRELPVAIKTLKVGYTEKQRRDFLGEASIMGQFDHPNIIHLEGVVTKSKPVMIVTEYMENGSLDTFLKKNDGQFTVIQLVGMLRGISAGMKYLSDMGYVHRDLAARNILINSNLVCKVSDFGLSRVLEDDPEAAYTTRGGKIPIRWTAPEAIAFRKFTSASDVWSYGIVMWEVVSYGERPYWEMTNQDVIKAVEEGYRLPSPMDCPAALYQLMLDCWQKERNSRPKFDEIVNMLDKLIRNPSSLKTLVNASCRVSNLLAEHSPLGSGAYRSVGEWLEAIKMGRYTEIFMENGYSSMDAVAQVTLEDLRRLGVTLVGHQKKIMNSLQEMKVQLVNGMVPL
Sequence of kinases (KINOMEscan panel) (Homo sapiens, UniProt P00533, DEL752-759) (P00533 with tags, fused parts or gaps DEL752-759): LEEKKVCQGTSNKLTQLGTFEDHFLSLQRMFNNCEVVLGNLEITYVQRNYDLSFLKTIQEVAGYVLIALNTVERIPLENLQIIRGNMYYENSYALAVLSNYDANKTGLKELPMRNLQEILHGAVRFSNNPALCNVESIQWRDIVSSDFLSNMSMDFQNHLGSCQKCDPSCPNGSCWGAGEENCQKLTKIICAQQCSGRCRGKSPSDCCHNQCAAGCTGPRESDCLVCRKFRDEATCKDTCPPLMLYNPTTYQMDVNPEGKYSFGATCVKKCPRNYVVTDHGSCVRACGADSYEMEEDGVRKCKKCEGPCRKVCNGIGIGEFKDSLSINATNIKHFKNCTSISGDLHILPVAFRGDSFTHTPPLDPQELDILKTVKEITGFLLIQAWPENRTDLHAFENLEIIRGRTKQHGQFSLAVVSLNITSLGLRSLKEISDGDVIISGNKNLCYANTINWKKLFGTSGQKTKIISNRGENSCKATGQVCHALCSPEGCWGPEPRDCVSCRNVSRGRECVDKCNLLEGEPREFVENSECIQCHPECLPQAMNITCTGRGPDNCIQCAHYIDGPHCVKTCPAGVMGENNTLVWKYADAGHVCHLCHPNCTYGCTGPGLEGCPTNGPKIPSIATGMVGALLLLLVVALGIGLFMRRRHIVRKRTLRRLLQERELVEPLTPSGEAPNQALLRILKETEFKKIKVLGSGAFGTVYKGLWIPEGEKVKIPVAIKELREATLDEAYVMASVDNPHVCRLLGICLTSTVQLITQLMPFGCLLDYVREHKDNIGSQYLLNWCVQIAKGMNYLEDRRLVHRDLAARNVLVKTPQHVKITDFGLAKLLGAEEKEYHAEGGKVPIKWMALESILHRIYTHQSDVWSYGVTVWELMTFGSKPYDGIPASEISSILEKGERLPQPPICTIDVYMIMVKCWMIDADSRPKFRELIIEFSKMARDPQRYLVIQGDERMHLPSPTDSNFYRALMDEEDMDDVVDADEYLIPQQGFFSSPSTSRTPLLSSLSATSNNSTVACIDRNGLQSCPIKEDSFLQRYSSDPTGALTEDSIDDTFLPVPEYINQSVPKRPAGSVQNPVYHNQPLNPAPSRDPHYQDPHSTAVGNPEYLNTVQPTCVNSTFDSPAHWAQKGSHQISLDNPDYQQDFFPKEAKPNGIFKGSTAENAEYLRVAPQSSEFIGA
Sequence of kinases (KINOMEscan panel) (Homo sapiens, UniProt P15056) (P15056 whole entry): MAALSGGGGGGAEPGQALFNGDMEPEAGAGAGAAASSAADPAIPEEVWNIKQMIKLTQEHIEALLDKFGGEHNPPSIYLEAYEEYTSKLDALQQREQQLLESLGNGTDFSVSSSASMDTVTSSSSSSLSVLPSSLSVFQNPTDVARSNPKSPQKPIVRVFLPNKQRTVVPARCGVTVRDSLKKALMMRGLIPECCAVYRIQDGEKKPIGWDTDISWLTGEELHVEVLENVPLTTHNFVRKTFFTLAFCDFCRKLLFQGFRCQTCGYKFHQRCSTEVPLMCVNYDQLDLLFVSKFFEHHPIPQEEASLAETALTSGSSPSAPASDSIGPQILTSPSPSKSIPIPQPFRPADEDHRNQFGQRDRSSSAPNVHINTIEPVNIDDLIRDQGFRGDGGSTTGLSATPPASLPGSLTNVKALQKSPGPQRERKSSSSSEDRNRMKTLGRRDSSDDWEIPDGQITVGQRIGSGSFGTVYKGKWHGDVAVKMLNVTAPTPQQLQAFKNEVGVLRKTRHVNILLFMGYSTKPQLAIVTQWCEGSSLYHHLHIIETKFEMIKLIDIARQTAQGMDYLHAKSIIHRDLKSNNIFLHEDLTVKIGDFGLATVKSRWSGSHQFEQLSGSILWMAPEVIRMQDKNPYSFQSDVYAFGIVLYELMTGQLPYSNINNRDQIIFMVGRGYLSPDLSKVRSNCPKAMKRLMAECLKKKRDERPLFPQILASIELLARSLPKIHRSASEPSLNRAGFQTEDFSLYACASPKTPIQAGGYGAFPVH
Sequence of kinases (KINOMEscan panel) (Homo sapiens, UniProt P21802) (P21802 22-821): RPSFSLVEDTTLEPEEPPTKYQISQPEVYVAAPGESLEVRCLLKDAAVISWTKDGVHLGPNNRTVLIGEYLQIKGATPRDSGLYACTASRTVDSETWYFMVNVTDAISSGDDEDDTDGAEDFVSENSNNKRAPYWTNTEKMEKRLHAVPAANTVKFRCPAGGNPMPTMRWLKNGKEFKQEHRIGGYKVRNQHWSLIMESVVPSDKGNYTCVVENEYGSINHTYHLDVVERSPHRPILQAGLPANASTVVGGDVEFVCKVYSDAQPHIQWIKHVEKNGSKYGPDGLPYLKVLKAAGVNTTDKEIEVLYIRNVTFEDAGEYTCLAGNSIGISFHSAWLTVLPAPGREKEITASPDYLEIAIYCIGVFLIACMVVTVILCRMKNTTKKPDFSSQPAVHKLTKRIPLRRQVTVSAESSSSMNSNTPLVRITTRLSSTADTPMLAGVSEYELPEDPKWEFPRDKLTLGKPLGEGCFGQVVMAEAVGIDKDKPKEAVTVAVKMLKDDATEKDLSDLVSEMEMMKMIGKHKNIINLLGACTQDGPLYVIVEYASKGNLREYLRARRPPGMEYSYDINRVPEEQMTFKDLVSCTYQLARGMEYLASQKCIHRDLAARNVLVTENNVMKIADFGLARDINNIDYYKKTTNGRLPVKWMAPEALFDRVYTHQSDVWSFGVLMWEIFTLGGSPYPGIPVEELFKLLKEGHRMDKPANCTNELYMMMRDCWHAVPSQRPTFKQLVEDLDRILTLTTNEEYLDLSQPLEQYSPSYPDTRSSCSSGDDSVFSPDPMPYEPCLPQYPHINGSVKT

Structure (SMILES) | KINOMEscan EGFR(S752-I759del) [1] | KINOMEscan BRAF [2] | KINOMEscan FGFR2 [3] | KINOMEscan EPHA3 [4] | KINOMEscan WEE1 [5] | KINOMEscan EPHA5 [6] | KINOMEscan SRPK2 [7] | KINOMEscan SGK3 [8] | KINOMEscan WNK4 [9] | KINOMEscan CLK4 [10] | KINOMEscan TLK1 [11]
Cc1cccc(-c2nc(Nc3ccc4nn(C)cc4c3)c3ccccc3n2)n1 [NK167] | 0 | 0 | 0 | 0 | 0 | 0 | 0 | 0 | 0 | 22 | 0
Cc1cccc(-c2nc(N(C)c3ccc4ncsc4c3)c3ccccc3n2)n1 [NK-161] | 0 | 0 | 9 | 0 | 0 | 9 | 0 | 13 | 0 | 10 | 0
